This is an account of results in patent publication US20200392084A1 (priority 2017, published 2020).

Converted amounts (≈) assume the structure as drawn. Where two headings read alike, the source gives them in different places.

For data set [1] the following is noted: cited from earlier work.
Data set [2] is described as follows: Solvent solubility screen. It is filed as physicochemical. Conditions: thermodynamic from solid.
Data set [3] is described as follows: pKa determination (UV-metric). It is filed as physicochemical. Conditions: 0.15 M KCl.
Data set [4] in a line: logP determination (pH-metric). To be noted: 24.9-25.0 °C, 0.15M KCl. It is filed as physicochemical.
Data set [5] can be described thus: physchem.
The nature of data set [6]: Stability assessment of diethylamine salt (Example 6). It is filed as physicochemical.
The conditions of data set [7]: for hygroscopicity: Example 4; for moisture absorbed: at/up to 95% RH.
The conditions of data set [8]: 50° C./75% RH, t=5 days.
Setting [9] is: 25° C./60% RH, 1 month (Day 35).
[10] abbreviates: 25° C./60% RH, 3 months (Day 96).
Setting [11] is: 40° C./75% RH, 1 month (Day 35).
Setting [12] is: 40° C./75% RH, 3 months (Day 96).

Regarding `NCCCC[C@H](N)C(=O)O.O=C(O)c1cc(/N=N/c2ccc(S(=O)(=O)Nc3ccccn3)cc2)ccc1O` [L-Lysine Salt, sulfasalazine L-lysine (1:1) salt], the “Post-agitation pH” value was determined as 1.91 (pH 1), 5.63 (pH 4.5) and 7.17 (pH 6.8). Besides, the “Pre-agitation pH” value is, setting by setting: (pH 1) 0.76; (pH 4.5) 4.70; (pH 6.8) 6.99.

As to `Nc1ccc(S(=O)(=O)Nc2ccccn2)cc1` [Sulfapyridine, sulfapyridine], the allergic reactions in [1] (of recipients) was 3-8%.

Take `O=C(O)c1cc(/N=N/c2ccc(S(=O)(=O)Nc3ccccn3)cc2)ccc1O` [Sulfasalazine]: the solubility (in general, how much of the substance goes into solution per volume) is below 5000 µg/mL in [2] (1,4-dioxane, 40 °C, organic solvent or mixture, 1,4-Dixoane, read-out: Approx. Solubility); below 5000 µg/mL in data set [2] (1-butanol, 40 °C, organic solvent or mixture, read-out: Approx. Solubility); below 5000 µg/mL in data set [2] (1-propanol, 40 °C, organic solvent or mixture, read-out: Approx. Solubility); below 5000 µg/mL in [2] (2-propanol, 40 °C, organic solvent or mixture, read-out: Approx. Solubility); below 5000 µg/mL in data set [2] (2-propanol/water (50:50), 40 °C, aqueous with cosolvent or surfactant or cyclodextrin, read-out: Approx. Solubility); below 5000 µg/mL in data set [2] (40 °C, organic solvent or mixture, all solvents of the 24-solvent screen except DMF and THF, read-out: solubility values). The solubility is below 5000 µg/mL in data set [2] (acetone, 40 °C, organic solvent or mixture, read-out: Approx. Solubility); below 5000 µg/mL in data set [2] (acetone/water (50:50), 40 °C, aqueous with cosolvent or surfactant or cyclodextrin, read-out: Approx. Solubility); below 5000 µg/mL in data set [2] (acetonitrile, 40 °C, organic solvent or mixture, read-out: Approx. Solubility); below 5000 µg/mL in data set [2] (acetonitrile/water (50:50), 40 °C, aqueous with cosolvent or surfactant or cyclodextrin, read-out: Approx. Solubility); below 5000 µg/mL in [2] (dichloromethane, 40 °C, organic solvent or mixture, read-out: Approx. Solubility); above 100000 µg/mL in [2] (dimethylformamide, organic solvent or mixture, read-out: Approx. Solubility). Further, the solubility in data set [2] (ethanol, 40 °C, organic solvent or mixture, read-out: Approx. Solubility) is below 5000 µg/mL; in data set [2] (ethyl acetate, 40 °C, organic solvent or mixture, read-out: Approx. Solubility) it was below 5000 µg/mL; in data set [2] (ethyl formate, 40 °C, organic solvent or mixture, read-out: Approx. Solubility) it was below 5000 µg/mL; in data set [2] (heptane, 40 °C, organic solvent or mixture, Hepatane, read-out: Approx. Solubility), below 5000 µg/mL; in data set [2] (isobutyl acetate, 40 °C, organic solvent or mixture, read-out: Approx. Solubility), below 5000 µg/mL; in data set [2] (isopropyl acetate, 40 °C, organic solvent or mixture, read-out: Approx. Solubility), below 5000 µg/mL. Moreover, the solubility was below 5000 µg/mL in data set [2] (methanol, 40 °C, organic solvent or mixture, read-out: Approx. Solubility); below 5000 µg/mL in [2] (methanol/water (50:50), 40 °C, aqueous with cosolvent or surfactant or cyclodextrin, read-out: Approx. Solubility); below 5000 µg/mL in data set [2] (methyl ethyl ketone, 40 °C, organic solvent or mixture, Methylethyl Ketone, read-out: Approx. Solubility); below 5000 µg/mL in data set [2] (nitromethane, 40 °C, organic solvent or mixture, read-out: Approx. Solubility); 10000 µg/mL (≈ 25.1 mM) in data set [2] (tetrahydrofuran, organic solvent or mixture, read-out: Approx. Solubility); below 5000 µg/mL in data set [2] (toluene, 40 °C, organic solvent or mixture, read-out: Approx. Solubility). Also, the solubility in data set [2] (water, 40 °C, water, read-out: Approx. Solubility) was below 5000 µg/mL; in data set [5] (acetone, organic solvent or mixture) it was 1100 µg/mL (≈ 2.76 mM); in data set [5] (acetonitrile, organic solvent or mixture), 300 µg/mL (≈ 0.753 mM); in [5] (ethanol, organic solvent or mixture) it was 500 µg/mL (≈ 1.26 mM); in [5] (ethyl acetate, organic solvent or mixture), 400 µg/mL (≈ 1 mM); in data set [5] (isopropyl alcohol, organic solvent or mixture) it was 500 µg/mL (≈ 1.26 mM). Further, the solubility turned out to be 900 µg/mL (≈ 2.26 mM) in [5] (methanol, organic solvent or mixture); 900 µg/mL (≈ 2.26 mM) in data set [5] (methyl ethyl ketone, organic solvent or mixture); 300 µg/mL (≈ 0.753 mM) in data set [5] (methyl tert-butyl ether, organic solvent or mixture); 400 µg/mL (≈ 1 mM) in data set [5] (water). Further, the pKa (in general, the negative logarithm of the acid dissociation constant) is 2.29 in data set [3] (Type Acid (first acidic group), 25.0 °C); 11 in [3] (Type Acid (second acidic group), 25.0-25.1 °C); around 8.05 in [3] (Type Base (pyridine), 25.0-25.1 °C). For the same compound, the LogP – broadly, a log measure of how a compound divides between an organic and an aqueous phase – in [4] (Cationic species) was found to be 3.73 ± 0.01; in data set [4] (Zwitterionic species), 0.02 ± 0.03. Also, the “Thermodynamic solubility, Concentration” value reads like this: (pH 1) “Less than the limit”; (pH 4.5) “Less than the limit”; (pH 6.8) “Less than the limit”. The “Significant side effects occur in” value in data set [1] (of people) is listed as “about 25%”.

For the compound `CCNCC.O=C(O)c1cc(/N=N/c2ccc(S(=O)(=O)Nc3ccccn3)cc2)ccc1O` [diethylamine salt Form A, sulfasalazine diethylamine salt Form A], in data set [6] (setting [9]), the Appearance result is given as “Dark Orange”; the “Assay (Anhydrous, Solvent Free)” value is given as 97.2% (w/w %); the “Total Impurities” value is on record as 0.87%; the “Water Content” value was 0.8% (w/w %). Besides, the “XRPD (Conforms to Form A)” value in [6] (setting [9]) is recorded as “Conforms to”. For the same compound, in data set [6] (setting [10]), the Appearance result was “Dark Orange”; the “Assay (Anhydrous, Solvent Free)” value was 95.9% (w/w %); the “Total Impurities” value came to 0.76%; the “Water Content” value is given as 0.7% (w/w %). Further, the “XRPD (Conforms to Form A)” value in [6] (setting [10]) is given as “Conforms to”. Also, in data set [6] (setting [11]), the Appearance entry is recorded as “Dark Orange”; the “Assay (Anhydrous, Solvent Free)” value was 97.9% (w/w %); the “Total Impurities” value is given as 0.87%; the “Water Content” value is recorded as 1.1% (w/w %). Besides, the “XRPD (Conforms to Form A)” value in data set [6] (setting [11]) is on record as “Conforms to”. For the same compound, in [6] (setting [12]), the Appearance result is reported as “Dark Orange”; the “Assay (Anhydrous, Solvent Free)” value is reported as 96.5% (w/w %); the “Total Impurities” value is given as 0.77%; the “Water Content” value is 1.1% (w/w %). Further, the “XRPD (Conforms to Form A)” value in data set [6] (setting [12]) is reported as “Conforms to”. Further, in [6] (T = 0 (Day 0)), the Appearance result is “Dark Orange”; the “Assay (Anhydrous, Solvent Free)” value is given as 99.6% (w/w %); the “Total Impurities” value was 0.73%; the “Water Content” value is given as 0.4% (w/w %). In addition, the “XRPD (Conforms to Form A)” value in data set [6] (T = 0 (Day 0)) was “Conforms to”. For the same compound, in data set [7], the hygroscopicity result is listed as “slightly hygroscopic” and the moisture absorbed result is given as “more than 1 wt %”. Further, the stability entry in [8] is on record as “no evidence of degradation”.

Turning to `NC(CO)(CO)CO.O=C(O)c1cc(/N=N/c2ccc(S(=O)(=O)Nc3ccccn3)cc2)ccc1O` [tromethamine salt Form A, sulfasalazine tromethamine (1:1) salt form (Form A)], in data set [7], the hygroscopicity entry was “hygroscopic” and the moisture absorbed result is listed as “over 8 wt %”.
